Molecular target: epidermal growth factor receptor (EGFR) tyrosine kinase (Homo sapiens, UniProt P00533)
Assay: fluorescence tyrosine kinase assay (Antibody Beacon detection), dose-response
Type: biochemical

Sequence of epidermal growth factor receptor (EGFR) tyrosine kinase (P00533 25-1210): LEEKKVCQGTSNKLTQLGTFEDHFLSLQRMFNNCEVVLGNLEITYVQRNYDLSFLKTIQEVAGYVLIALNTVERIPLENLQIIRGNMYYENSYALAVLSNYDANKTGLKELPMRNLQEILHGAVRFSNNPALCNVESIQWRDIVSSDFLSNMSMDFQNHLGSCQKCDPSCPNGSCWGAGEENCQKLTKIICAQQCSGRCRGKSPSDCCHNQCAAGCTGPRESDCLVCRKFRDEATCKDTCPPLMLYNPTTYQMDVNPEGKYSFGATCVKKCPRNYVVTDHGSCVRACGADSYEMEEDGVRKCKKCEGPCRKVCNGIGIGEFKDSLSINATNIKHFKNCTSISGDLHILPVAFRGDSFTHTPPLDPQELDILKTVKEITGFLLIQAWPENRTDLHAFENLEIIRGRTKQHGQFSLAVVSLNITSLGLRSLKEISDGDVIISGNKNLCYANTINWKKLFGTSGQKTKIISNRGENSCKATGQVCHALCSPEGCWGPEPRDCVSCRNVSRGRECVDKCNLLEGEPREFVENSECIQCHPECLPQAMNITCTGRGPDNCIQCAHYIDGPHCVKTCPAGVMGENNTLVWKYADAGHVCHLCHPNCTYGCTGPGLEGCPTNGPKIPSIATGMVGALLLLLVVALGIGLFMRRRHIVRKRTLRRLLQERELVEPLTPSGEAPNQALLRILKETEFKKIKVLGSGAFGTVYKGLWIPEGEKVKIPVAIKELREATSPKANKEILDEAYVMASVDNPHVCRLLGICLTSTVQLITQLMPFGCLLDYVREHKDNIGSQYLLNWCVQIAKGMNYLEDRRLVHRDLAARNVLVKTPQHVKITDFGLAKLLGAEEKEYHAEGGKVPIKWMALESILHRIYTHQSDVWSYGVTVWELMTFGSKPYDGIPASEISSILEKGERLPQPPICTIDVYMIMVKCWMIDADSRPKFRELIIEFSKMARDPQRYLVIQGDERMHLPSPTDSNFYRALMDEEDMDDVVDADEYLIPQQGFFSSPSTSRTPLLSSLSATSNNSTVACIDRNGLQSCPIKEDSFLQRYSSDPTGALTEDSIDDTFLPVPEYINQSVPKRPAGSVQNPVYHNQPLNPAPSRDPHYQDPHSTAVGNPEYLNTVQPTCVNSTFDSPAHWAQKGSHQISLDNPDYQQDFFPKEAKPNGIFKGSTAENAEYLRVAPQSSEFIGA

Structure (SMILES) | IC50 [nM]
O=c1c2cccc(O)c2oc2cccc(O)c12 [compound 1, 1,5-dihydroxyxanthone] | 90.3
O=c1c2cc(O)ccc2oc2cccc(O)c12 [compound 2, 1,7-dihydroxyxanthone] | 223
